Earlier results, collected in patent publication US20070099863A1, “Compounds for the treatment of demyelinating and autoimmune diseases” (priority 2003, published 2007).
Where a name gives a salt, the structure may show the parent alone.

How the values were obtained:
P2X7 = molecular target: T1, P2X7 (Homo sapiens, UniProt Q99572); settings: P2X7 subtype; read-out: IC50 in relation to P2X7; cited from earlier work
T1 sequence (Q99572 1-595): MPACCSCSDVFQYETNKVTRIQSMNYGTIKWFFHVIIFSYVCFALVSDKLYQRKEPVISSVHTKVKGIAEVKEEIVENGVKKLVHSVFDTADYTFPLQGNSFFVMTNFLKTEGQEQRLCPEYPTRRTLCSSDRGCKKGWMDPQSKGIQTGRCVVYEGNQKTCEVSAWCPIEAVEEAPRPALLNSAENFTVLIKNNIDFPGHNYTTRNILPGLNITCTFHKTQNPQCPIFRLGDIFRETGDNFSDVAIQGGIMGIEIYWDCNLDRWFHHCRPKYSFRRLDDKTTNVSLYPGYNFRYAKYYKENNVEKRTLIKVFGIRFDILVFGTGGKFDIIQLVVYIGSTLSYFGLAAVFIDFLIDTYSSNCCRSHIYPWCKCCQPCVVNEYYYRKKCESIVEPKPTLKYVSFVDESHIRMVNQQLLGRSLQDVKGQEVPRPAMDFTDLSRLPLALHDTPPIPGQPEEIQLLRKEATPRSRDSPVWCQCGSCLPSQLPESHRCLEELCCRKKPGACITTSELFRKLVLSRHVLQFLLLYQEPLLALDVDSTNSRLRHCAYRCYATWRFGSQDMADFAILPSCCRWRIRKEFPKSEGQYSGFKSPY

P2X4 = molecular target: T2, P2X4 (Homo sapiens, UniProt Q99571); settings: P2X4 subtype; read-out: IC50 in relation to P2X4; cited from earlier work
T2 sequence (Q99571 1-388): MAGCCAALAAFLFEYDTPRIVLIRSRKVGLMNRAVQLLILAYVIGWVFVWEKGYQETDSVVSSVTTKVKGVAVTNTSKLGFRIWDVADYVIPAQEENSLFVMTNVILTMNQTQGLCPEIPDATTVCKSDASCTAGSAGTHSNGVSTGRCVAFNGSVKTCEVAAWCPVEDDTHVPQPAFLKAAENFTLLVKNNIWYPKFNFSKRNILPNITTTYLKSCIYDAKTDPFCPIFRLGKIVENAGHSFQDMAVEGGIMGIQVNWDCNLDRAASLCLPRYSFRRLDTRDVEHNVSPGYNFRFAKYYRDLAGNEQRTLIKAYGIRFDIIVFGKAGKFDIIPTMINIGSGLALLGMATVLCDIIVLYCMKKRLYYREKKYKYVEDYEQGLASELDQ

P2X5 = P2X5 (Homo sapiens, UniProt Q93086); settings: P2X5 subtype; read-out: IC50 in relation to P2X5; cited from earlier work
Chain of P2X5 (Q93086 whole entry, species assumed): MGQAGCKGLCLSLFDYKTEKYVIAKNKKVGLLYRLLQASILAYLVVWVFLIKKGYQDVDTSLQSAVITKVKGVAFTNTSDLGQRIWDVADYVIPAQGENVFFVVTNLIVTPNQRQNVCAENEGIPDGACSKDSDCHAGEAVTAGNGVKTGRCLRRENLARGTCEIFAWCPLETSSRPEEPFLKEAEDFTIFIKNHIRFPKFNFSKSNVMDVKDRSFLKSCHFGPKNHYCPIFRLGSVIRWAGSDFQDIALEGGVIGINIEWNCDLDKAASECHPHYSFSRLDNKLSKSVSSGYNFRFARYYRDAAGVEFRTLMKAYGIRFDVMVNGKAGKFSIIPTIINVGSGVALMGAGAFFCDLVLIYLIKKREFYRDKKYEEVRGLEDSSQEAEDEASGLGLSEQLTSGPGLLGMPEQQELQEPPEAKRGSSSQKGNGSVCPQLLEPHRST

SMILES | IC50 (P2X7) [µM] | IC50 (P2X4) [µM] | IC50 (P2X5) [µM]
CCOc1ccc(Nc2ccc(/C(=C3C=C/C(=[N+](/CC)Cc4cccc(S(=O)(=O)[O-])c4)C=C/3C)c3ccc(N(CC)Cc4cccc(S(=O)(=O)O)c4)cc3C)cc2)cc1 [BBG, Coomassie brilliant blue G] | 0.01 | > 10 | 
Cc1ccc(C(=O)Nc2ccc(S(=O)(=O)O)c3cc(S(=O)(=O)O)cc(S(=O)(=O)O)c23)cc1NC(=O)c1cccc(NC(=O)Nc2cccc(C(=O)Nc3cc(C(=O)Nc4ccc(S(=O)(=O)O)c5cc(S(=O)(=O)O)cc(S(=O)(=O)O)c45)ccc3C)c2)c1 [Suramin, hexasodium salt of 8,8′-[carbonylbis[imino-3,1-phenylenecarbonylimino(4-methyl-3,1-phenylene)carbonylimino]]bisnaphthalene-1,3,5-trisulphonic acid] |  | 178 | 4
